Source: patent publication US5686065A, “Topical siloxane sunscreen compositions having enhanced performance and safety” (Special Advanced Biomaterials, Inc., priority 1991, dated 1997)
Like-named read-outs stand apart in the source and are kept apart here.

Columns and labels:
[1] = Protocol: Ten microliters of each of (a), (b), (c), (d), 2-ethyl-1,3-hexanediol (EHD), N,N-diethyl-m-toluamide (DT), or N,N-diethoxy-m-toluamide (DOT) were applied to separate 7 cm^2 patches of greentree python snake skin once daily for 3 days. At the end of the application period, the patches were washed five times each day for three days with 20 μl of 50/50 ethanol/water using a 3 cm diameter cylinder to enable collection of the washings. The amount of insect repellent washed off was quantified using reverse phase HPLC, C^14 radiocounting or AT/FTIR. The percentage remaining bound after 5, 10, and 15 washes was designated as 100×(amount applied-amount washed off)/(amount applied) and was averaged for 5 samples.
[2] = test system: S. aureus; experiment: Quantitation of microbial growth in solution mixing with treated snake skin patch; format: cell-based; settings: for Microbe Growth/Solution after 5 washes / Microbe Growth/Solution after 15 washes / Microbe Growth/Solution after 10 washes: S. aureus, treated snake skin, 24 hours
Protocol: In the second test, tubes containing liquid growth medium were inoculated with bacteria, and then the test disk was placed in the tube. The bacteria was allowed to grow for 24 hours and then the number of bacteria per ml was quantified either by light reflectance or by removing a small volume and streaking on an agar plate. The latter method was followed by allowing the bacteria to grow and then counting the colonies (Table 7).
(§1) Each result was averaged for samples.

[3] = test system: normal skin bacteria (results for S. aureus reported); experiment: Quantitation of microbial growth on human skin (expanded flora); format: in vivo
Protocol: The third test involved growing normal skin bacteria by covering the skin with an occlusive dressing such as Saran Wrap (this is referred to as expanding the flora). Prior to expanding the flora, the skin test sites were treated with the test or control solutions as described above. The flora was then expanded for 24 hours, followed by quantitating the bacteria growth. This was done by washing an area of skin with liquid growth medium and spreading the washing on an agar plate. After the bacteria grew the number colonies were counted (Table 8).
as §1

[4] = parameters: species or system greentree python snake
Protocol: Ten microliters (a), (b), (c), (d), AT or ethanol/cyclomethicone vehicle was applied separately to a 7 cm^2 patch of greentree python snake skin once daily for 3 days or to a 7 cm^2 patch of shaved rabbit skin. At the end of the application period, the patches were washed five times each day for three days with 20 μl of 50/50 ethanol/water using a 3 cm diameter cylinder to enable collection of the washings. The amount of skin protectant washed off was quantitated using reverse phase HPLC, C^14 radiocounting or AT/FTIR. The percentage remaining bound after 5, 10, and 15 washes was designated as 100×(amount applied-amount washed off)/(amount applied) and was averaged for the 5 samples.

[5] = Modified Draise test: erythema by salicylic acid on treated rabbit skin; format: in vivo; settings: in words, from Table 10
Protocol: The skin test on rabbits was essentially a modified Draise test for skin in which unabraded skin was studied on partially occluded sites. The skin irritation study was started following skin treatment by one of the test compounds above. In this test, after the compound was applied to the skin, a known skin irritant, 10 μl of 5% salicylic acid in a 50/50 by volume mixture of ethanol/water, was applied once a day for 3 days. The skin was rated for erythema using the scale of 0--no erythema to 4--severe erythema.

[6] = test system: microbes on skin; settings: general statement, no test given; cited from earlier work
[7] = Humectant remaining bound to snake skin after washing; parameters: species or system greentree python snake
Protocol: In the case of (b), 10 μl of ETS was also applied immediately after solution (b).

[8] = test system: S. aureus; experiment: Zone of inhibition on agar of treated snake skin patches; format: cell-based; settings: 24 hours
Protocol: The patches of snake skin were assayed for antimicrobial activity using 3 methods: (1) zone of antimicrobial activity on agar due to diffusion, (2) quantitation of microbial growth in solution mixing with patch, and (3) quantitation of microbial growth on human skin. The first method was a standard zone of inhibition study in which the bacteria was streaked onto an agar plate, the disk containing the test material was placed on the plate, and then the bacteria were allowed to grow for 24 hours.
as §1

[9] = by infants; general statement; cited from earlier work
[10] = snake skin, insect repellent, 50/50 ethanol/water washes
[11] = human skin, flora expanded 24 hours, S. aureus

Molecule: CCON(OCC)C(=O)c1cccc(C)c1 [DOT, N,N-diethoxy-m-toluamide]
- % bound after 5 washes [1]: 6%
- % bound after 10 washes [1]: 1%
- % bound after 15 washes [1]: 1%

Molecule: CCCC(O)C(CC)CO (centres unmarked) [EHD, 2-ethyl-1,3-hexanediol]
- % bound after 5 washes [1]: 7%
- % bound after 10 washes [1]: 2%
- % bound after 15 washes [1]: 2%

Molecule: CCO[Si](CCCN)(OCC)OCC [aminofunctional silane coupling agent, Aminopropyltriethoxysilane]
- microbiocidal activity ([2]; in words, from Table 7): not bactericidal
- antibacterial activity on human skin ([3]; in words, from Table 8): inhibitory activity on bacterial growth on human skin
- microbial inhibitory activity on the skin ([3]; in words, no data at the place): substantial microbial inhibitory activity on the skin

Molecule: NC(=O)NC1NC(=O)NC1=O (centres unmarked) [allantoin, Allantoin]
- adherence to / retention on skin [4]: enhanced when applied with a polymerizing siloxane
- protection from skin erythema by salicylic acid [5]: does provide some protection from skin erythema by salicylic acid, this protection is lost if the skin is washed

Molecule: O=C(Nc1ccc(Cl)cc1)Nc1ccc(Cl)c(Cl)c1 [trichlorocarban]
- antimicrobial effectiveness on skin [6]: relatively ineffective

Molecule: [H]/N=C(\N/C(=N/[H])NCCCCCCNC(=N)NC(=N)Nc1ccc(Cl)cc1)Nc1ccc(Cl)cc1 [Chlorhexidene, Chlorhexidine]
- antimicrobial effectiveness on skin [6]: very effective
- toxicity / side effects of topical antimicrobial [6]: causes severe skin drying

Molecule: CCN(CC)C(=O)c1cccc(C)c1 [DT, N,N-diethyl-m-toluamide]
- % bound after 5 washes [1, 10]: 10%
- % bound after 10 washes [1, 10]: 5%
- % bound after 15 washes [1, 10]: 2%

Molecule: allantion-mono(triethoxy)siloxy ester [Example 6 (d)]
- % bound after 5 washes [4]: 47%
- % bound after 10 washes [4]: 36%
- % bound after 15 washes [4]: 21%

Molecule: OCC(O)CO [GL, Glycerol]
- % bound after 5 washes [7]: 1%
- % bound after 10 washes [7]: 0%
- % bound after 15 washes [7]: 0%

Molecule: Oc1c(Cl)cc(Cl)c(Cl)c1Cc1c(O)c(Cl)cc(Cl)c1Cl [HCP, Hexachlorophene]
- Zone of Inhibition after 5 washes [8]: 18 mm
- Zone of Inhibition after 10 washes [8]: 0 mm
- Zone of Inhibition after 15 washes [8]: 0 mm
- Microbe Growth/Solution after 5 washes [2]: 0 CFU
- Microbe Growth/Solution after 15 washes [2]: 10^3 CFU
- Microbe Growth/on Skin after 0 washes [3, 11]: 0 CFU
- Microbe Growth/on Skin after 5 washes [3, 11]: 10^2 CFU
- Microbe Growth/on Skin after 15 washes [3, 11]: 10^5 CFU
- absorption [9]: rapidly absorbed by infants
- toxicity / side effects of topical antimicrobial [6]: highly toxic

Molecule: [O-][n+]1ccccc1S [PYR, Pyrithione]
- Zone of Inhibition after 5 washes [8]: 10 mm
- Zone of Inhibition after 10 washes [8]: 0 mm
- Zone of Inhibition after 15 washes [8]: 0 mm
- Microbe Growth/Solution after 5 washes [2]: 0 CFU
- Microbe Growth/Solution after 10 washes [2]: 10^2 CFU
- Microbe Growth/Solution after 15 washes [2]: 10^3 CFU
- Microbe Growth/on Skin after 5 washes [3, 11]: 10^4 CFU
- Microbe Growth/on Skin after 15 washes [3, 11]: 10^5 CFU

Molecule: Oc1cc(Cl)ccc1Oc1ccc(Cl)cc1Cl [triclosan, Triclosan]
- antimicrobial effectiveness on skin [6]: relatively ineffective

Molecule: O=C(O)CC(O)C(=O)O (centres unmarked) [MA, Malic acid]
- Zone of Inhibition after 5 washes [8]: 15 mm
- Zone of Inhibition after 10 washes [8]: 0 mm
- Zone of Inhibition after 15 washes [8]: 0 mm
- Microbe Growth/Solution after 5 washes [2]: 0 CFU
- Microbe Growth/Solution after 10 washes [2]: 10^2 CFU
- Microbe Growth/Solution after 15 washes [2]: 10^3 CFU
- Microbe Growth/on Skin after 5 washes [3, 11]: 10^5 CFU
- Microbe Growth/on Skin after 15 washes [3, 11]: 10^5 CFU

Molecule: Hyaluronic acid [HA]
- % bound after 5 washes [7]: 5%
- % bound after 10 washes [7]: 1%
- % bound after 15 washes [7]: 0%
